Measured values published in patent US20080214517A1, “Modulation of the Expression of Estrogen Receptors for the Prevention or Treatment of Heart Disease” (priority 2003, published 2008).

Key:
[1] = test system: porcine smooth muscle cells (PSMC); assay: Mitogenic assay, PSMC proliferation; assay type: cell-based; conditions: 17βE (10^−8 mol/L); 72 hours
Experimental: FIG. 2: Contribution of ERα and ERβ on PSMC proliferation. PSMC were seeded at 1×10^4 cells/well and stimulated with or without antisense oligomers as described in the methods. Cells were then stimulated with or without 17βE (10^−8 mol/L) and a cell count achieved 72 hours post-treatment. The values are means of cell counts obtained from 6 wells for each treatment. *, P<0.05 as compared to day 0; t, P<0.05 as compared to control (1% FBS); *, P<0.05 as compared to cells treated with 17βE ([…]).
(§1) Confluent PAEC and PSMC were rinsed with DMEM and trypsinized. Cells were resuspended in 10 mL of DMEM, 5% FBS, and antibiotics, and a cell count was obtained by using a Coulter counter Z1. PAEC and PSMC were initially seeded at 1×10^4 cells/well of 24-well tissue culture plates stimulated for 24 hours in DMEM, 5% FBS, and antibiotics with or without antisense oligomers (10^−6 mol/L), and starved for 48 hours in DMEM, 0.1% FBS, and antibiotics with or without antisense oligomers (10^−6 mol/L daily) for Go synchronization. The cells were stimulated for 72 hours in DMEM, 1% FBS, antibiotics with or without antisense oligomers (10^−6 mol/L daily) and with or without of 17βE (10^−8 mol/L). After trypsinization, cell number was determined by using a Coulter counter Z1.

[2] = test system: porcine aortic endothelial cells (PAEC); assay: Mitogenic assay, PAEC proliferation; assay type: cell-based; conditions: 17βE 10^−8 mol/L, compared to cells treated with FBS 1%; 3 days
Experimental: FIG. 5: Contribution of ERα and ERβ on PAEC proliferation. PAEC were seeded at 1×10^4 cells/well and stimulated with or without antisense oligomers as described in the methods. Cells were then stimulated with or without 17βE (10^−8 mol/L) and a cell count achieved 72 hours post-treatment. The values are means of cell counts obtained from 6 wells for each treatment. *, P<0.05 as compared to day 0; †, P<0.05 as compared to control (1% FBS); ‡, P<0.05 as compared to cells treated with 17βE (10^−8 mol/L).
as §1

[3] = test system: porcine smooth muscle cells (PSMC); assay: Chemotactic assay (modified Boyden chamber), PSMC migration; assay type: cell-based; conditions: PDGF-BB 10 ng/mL
Experimental: FIG. 3: Contribution of ERα and ERβ on PSMC migration. PSMC were trypsinized and resuspended in DMEM; 2.5×10^5 cells/well of a six-well tissue culture plate were stimulated with or without antisense oligomers as described in the methods. 2.5×10^4 cells were added in the higher compartment of the modified Boyden chamber apparatus with or without antisense oligomers, and the lower chamber was filled with DMEM 1% FBS, and antibiotics with or without PDGF-BB (10 ng/ml). Five hours postincubation at 37° C., the migrated cells were fixed, stained and counted by using a microscope adapted to a digitized video camera. The values are represented as relative mean of migrating cells from 6 chambers for each treatment. *, P<0.05 as compared unstimulated cells; †, P<0.05 as compared to cells treated with PDGF-BB; ‡, P<0.05 as compared to cells treated with 17βE (10^−8 mol/L).
(§2) Cell migration was evaluated using a modified Boyden 48-well microchamber kit (NeuroProbe, Cabin John, Md.). Near confluent PAEC and PSMC were rinsed with DMEM and trypsinized. Cells were resuspended in DMEM, 5% FBS, and antibiotics, and a cell count was obtained. […] The filter was then mounted on a glass slide, and migrated cells were counted using a microscope adapted to a video camera to obtain a computer-digitized image. […]

[4] = test system: porcine aortic endothelial cells (PAEC); assay: Chemotactic assay (modified Boyden chamber), PAEC migration; assay type: cell-based; conditions: 17βE 10^−8 mol/L, 5 hours, compared to cells treated with FBS 1%
Experimental: FIG. 6: Contribution of ERα and ERβ on PAEC migration. PAEC were trypsinized and resuspended in DMEM; 2.5×10^5 cells/well of a six-well tissue culture plate were stimulated with or without antisense oligomers as described in the methods. 2.5×10^4 cells were added in the higher compartment of the modified Boyden chamber apparatus with or without antisense oligomers, and the lower chamber was filled with DMEM 1% FBS, and antibiotics with or without 17βE (10^−8 mol/L). Five hours postincubation at 37° C., the migrated cells were fixed, stained and counted by using a microscope adapted to a digitized video camera. The values are represented as relative mean of migrating cells/mm^2 from 6 chambers for each treatment. *, P<0.05 as compared to unstimulated cells; t, P<0.05 as compared to cells treated with 17βE (10^−8 mol/L).
as §2

[5] = test system: p42/44 MAPK phosphorylation; assay: Western blot of p42/44 MAPK phosphorylation in PSMC; assay type: cell-based, porcine; conditions: PDGF-BB stimulation 5 minutes; 17βE 10^−8 mol/L 30-minute pretreatment
Experimental: (§3) FIG. 4: Contribution of ERα and ERβ on p42/44 and p38 MAPK activation in PSMC. PSMC were seeded at 1×10^6 cells/100-mm culture plate and grown to confluence. Cells were treated either with antisense or scrambled oligomers as described in the methods. Cells were then treated with or without 17βE (10^−8 mol/L) for 30 minutes and stimulated 5 minutes for p42/44 MAPK (A) or 30 minutes for p38 MAPK (B) with PDGF-BB. Proteins were detected by Western blot analyses. Image densitometry results are given as relative expression (%) as compared to control PBS-treated cells.
(§4) The efficiency and specificity of our antisense oligomers to prevent the expression of targeted proteins were evaluated by Western blot analyses. Culture medium of confluent PAEC and PSMC (100-mm tissue culture plate) was removed, the cells were rinsed with Dulbecco's modified eagle medium (DMEM; Life Technologies Inc., Carlsbad, Calif.) and trypsinized (trypsine-EDTA; Life Technologies). Cells were resuspended in DMEM containing 5% of fetal bovine serum (FBS) (Hyclone Laboratories, Logan, Utah) and antibiotics (penicillin and streptomycin, Sigma, St-Louis, Mo.), and a cell count was obtained with a Coulter counter Z1 (Coulter Electronics, Luton, UK). […] Plates were incubated at 4° C. for 30 minutes and scraped, and the protein concentration was determined with a Bio-Rad protein assay kit (Bio-Rad, Hercules, Calif.). […]

[6] = test system: p38 MAPK phosphorylation; assay: Western blot of p38 MAPK phosphorylation in PSMC; assay type: cell-based, porcine; conditions: PDGF-BB stimulation 30 minutes; 17βE 10^−8 mol/L 30-minute pretreatment
Experimental: as §3, §4

[7] = test system: p42/44 MAPK phosphorylation; assay: Western blot of p42/44 MAPK phosphorylation in PAEC; assay type: cell-based, porcine; conditions: 17βE 10^−8 mol/L, 5 minutes; vs PBS-treated PAEC
Experimental: (§5) FIG. 7: Contribution of ERα and ERβ on p42144 and p38 MAPK activation in PAEC. PAEC were seeded at 1×10^6 cells/100-mm culture plate and grown to confluence. Cells were treated either with antisense or scrambled oligomers as described in the methods. Cells were then treated with or without 17βE (10^−8 mol/L) for 5 minutes for p42/44 MAPK activation (A) or 30 minutes for p38 MAPK stimulation (B). Proteins were detected by Western blot analyses. Image densitometry results are given as relative expression (%) as compared to control PBS-treated cells.
as §4

[8] = test system: p38 MAPK phosphorylation; assay: Western blot of p38 MAPK phosphorylation in PAEC; assay type: cell-based, porcine; conditions: 17βE, 30 minutes stimulation; vs PBS-treated PAEC
Experimental: as §5, §4

[9] = local delivery following coronary angioplasty in pigs; cited from earlier work

Molecule | prevention of PSMC proliferation mediated by FBS 1% [1] | enhancement of PAEC proliferation [2] | inhibition of the chemotactic effect of PDGF-BB on PSMC (in words) ([3]; 17βE 10^−8 mol/L) | promotion of PAEC migration [4] | p42/44 MAPK phosphorylation in PSMC (in words) [5] | p38 MAPK phosphorylation in PSMC (in words) [6] | increase of p42/44 MAPK phosphorylation in PAEC [7] | increase of p38 MAPK phosphorylation in PAEC [8] | endothelial NO synthase (eNOS) expression (in words) [9] | neointimal formation (in words) [9] | reendothelialization process (in words) [9] | increase of basal migration of PSMC ([3]; 5 hours, compared to cells treated with FBS 1%)
C[C@]12CC[C@@H]3c4ccc(O)cc4CC[C@H]3[C@@H]1CC[C@@H]2O [17βE, 17-beta-estradiol] | 95% | 123% | inhibited completely | 363% | reversed | reversed | 317% | 254% | improving | reducing | improving | 
PDGF-BB: platelet-derived growth factor-BB, agonist used to stimulate PSMC migration and MAPK phosphorylation (protein, UniProt P01127 82-190, looked up) Platelet-derived growth …: SLGSLTIAEPAMIAECKTRTEVFEISRRLIDRTNANFLVWPPCVEVQRCSGCCNNRNVQCRPTQVQLRPVQVRKIEIVRKKPIFKKATVTLEDHLACKCETVAAARPVT |  |  |  |  | increased | increased |  |  |  |  |  | 141%
